For data set [1] the following is noted: cited from earlier work.
The nature of data set [2]: Tasting the mandelic acid alkylamides (sensory panel, ethanolic solution diluted in 11% sugar solution, swallowed). Format: in vivo. The settings on record: for estimation of pungency: scale of 1 (very weak) to 9 (very strong), 6-8 testers. As to the method:
The substance to be tasted is dissolved in ethanol and the ethanolic solution is then diluted with an 11% sugar solution (final concentration: c). For tasting, in each case approximately 5 ml of the sugar solution are swallowed. If the threshold value of the substance is known, a value just above the threshold value is chosen for the tasting. A group of 6-8 testers tasted the solutions.
Where possible, the impression of pungency was estimated on a scale of 1 (very weak) to 9 (very strong).

Consider `COc1cc(CNC(=O)CCCC/C=C/C(C)C)ccc1O` [Capsaicin, N-(4-hydroxy-3-methoxybenzyl)-8-methyl-(6E)-nonenoamide], for which, in data set [1] (frequent use and overdose), the “damage occurring in the case of frequent use and overdose” value was “chronic gastritis, kidney and liver damage”. Besides, the LD50 in data set [1] (mouse oral) is on record as 47 mg.

As for `CCCCCCCCNC(=O)C(O)c1ccc(OC)c(O)c1` (centres unmarked) [no. 6, 2-(3-Hydroxy-4-methoxyphenyl)-2-hydroxy-N-octylacetamide], in data set [2] (1 ppm in 11% sugar solution), the taste profile entry is listed as “slightly pungent, particularly on the tongue, slight tingling, rapidly disappears again” and the estimation of pungency was 3.

For `CCCCCCCCCNC(=O)C(O)c1ccc(O)c(OC)c1` (centres unmarked) [no. 10, 2-(4-Hydroxy-3-methoxyphenyl)-2-hydroxy-N-nonylacetamide], in data set [2] (10 ppm in 11% sugar solution), the taste profile result is on record as “immediate onset of pungency; similar to capsaicin” and the estimation of pungency is reported as 8.

Turning to `CCCCCCCCNC(=O)C(O)c1ccc(O)c(O)c1` (centres unmarked) [no. 4, 2-(3,4-Dihydroxyphenyl)-2-hydroxy-N-octylacetamide], in data set [2] (10 ppm in 11% sugar solution), the taste profile result is on record as “pungency develops slowly; stinging, rough, slightly spicy” and the estimation of pungency is on record as 5.

As to `CCCCCCCCC(=O)NCc1ccc(O)c(OC)c1` [N-(3-methoxy-4-hydroxybenzyl)nonanoamide, reference compound], the taste profile result in data set [2] (200 ppb in 11% sugar solution) was “slightly delayed onset of effect in pharyngeal cavity, little pungency on the tongue, stinging, no development of heat”.

`COc1cc(CNC(=O)CCCCCCC(C)C)ccc1O` [Dihydrocapsaicin, reference compound]: the taste profile entry in data set [2] (100 ppb in 11% sugar solution) is on record as “slightly delayed onset of effect in pharyngeal cavity, burning, aggressive, no development of heat”.

On to `CCCCCCCCNC(=O)C(O)c1ccc(O)c(OC)c1` (centres unmarked) [no. 9, 2-(4-Hydroxy-3-methoxyphenyl)-2-hydroxy-N-octylacetamide], for which, in data set [2] (1 ppm in 11% sugar solution), the taste profile result is “no pungency initially, develops suddenly, very intense and long-lasting, ginger pungency”; the estimation of pungency was 8.

In the case of `CCCCCCCNC(=O)C(O)c1ccc(O)c(OC)c1` (centres unmarked) [no. 8, 2-(4-Hydroxy-3-methoxyphenyl)-2-hydroxy-N-heptylacetamide], in data set [2] (10 ppm in 11% sugar solution), the taste profile result is “pungency develops; burning, slightly over-ripe” and the estimation of pungency is listed as 7.

Source of the values: patent publication US20050208084A1, “Use of alkylamidomandelates as flavourings” (priority 2002, published 2005).
